Three molecules from patent US20230270817A1, “VIMENTIN INHIBITORS” (Filamon Pty Ltd, priority 2020, published 2023) can be followed below.

“Also recorded” adds a separate entry of the source. Non-standard residues stand in square brackets, D forms with d. 2Nal = N[C@@H](Cc1ccc2ccccc2c1)C(=O)O

Assay [1] addresses T1, hGIIA binding to full length vimentin (Homo sapiens, UniProt P08670).
T1 construct: His6 tag (HHHHHH) from pET15b (N); thrombin cleavage site (LVPRGS) (N); made in house; host or cells: vimentin: Rosetta 2 E. coli (pET15b)
Briefly: Colorimetric enzyme immunoassay (EIA) of inhibitor effect on the hGIIA-vimentin interaction, full length vimentin. To be noted: immobilised full length vimentin, hGIIA 250 ng/mL, inhibitors 5-100 μM, FIG. 2B top panel. As to the method:
(§1) Purified vimentin protein solutions (full length, coil 1 or coil 2 fragments) were diluted to 10-20 μg/mL concentration in PBS and seeded to a 96-well microplate with a 100 μL/well volume. After an overnight incubation at 4° C., the plate was emptied. Each well was then blocked with 200 μL of 1% BSA in PBS. The blocked plate was incubated for at least an overnight period at 4° C. and used within 1 week.

Assay [2] has as its system LNCaP prostate cancer cells. Kind of assay: Murine prostate cancer xenograft model. The class given is in vivo, male Balb/c nu/nu mice. The following applies: c2 0.1 mg/kg in saline thrice weekly, eight-week period, compared to vehicle. As to the method:
Animals (male Balb/c nu/nu mice, aged six weeks, n=15 per group) were injected subcutaneously in the right rear flank with 1×10^6 LNCaP prostate cancer cells. Tumour size was monitored with calipers measuring tumour width and length and tumour volume calculated as described (Sved et al., Cancer Res, 2004. 64(19): p. 6934-40). When tumours were palpable and measured >5×5 mm, animals were randomised and entered into the study. […] Tumour volume data are mean±SE.

Assay [3] concerns the target T2, vimentin coil 1 fragment (residues 96 to 253), recombinant, His-tagged (human, UniProt P08670 96-253).
T2 construct: Removal of the tag is not reported; also called coil 1 segment
Briefly: EIA, plate-bound vimentin coil 1, detection with 4A1-AP. As to the method:
as §1

T1 sequence (P08670 whole entry): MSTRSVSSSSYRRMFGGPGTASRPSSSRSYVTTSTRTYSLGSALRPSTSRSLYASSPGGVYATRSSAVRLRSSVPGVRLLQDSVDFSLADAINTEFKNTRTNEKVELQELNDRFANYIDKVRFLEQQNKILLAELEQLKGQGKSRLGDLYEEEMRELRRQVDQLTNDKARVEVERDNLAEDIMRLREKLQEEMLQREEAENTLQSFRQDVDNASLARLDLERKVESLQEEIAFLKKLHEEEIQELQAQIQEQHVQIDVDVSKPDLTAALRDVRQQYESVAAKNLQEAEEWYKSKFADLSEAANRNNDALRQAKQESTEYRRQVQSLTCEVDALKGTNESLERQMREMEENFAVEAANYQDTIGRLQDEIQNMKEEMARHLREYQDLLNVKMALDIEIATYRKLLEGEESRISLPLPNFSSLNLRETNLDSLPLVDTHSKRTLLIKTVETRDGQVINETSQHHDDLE
T2 sequence (P08670 other isoform, or with tags, fused parts or gaps): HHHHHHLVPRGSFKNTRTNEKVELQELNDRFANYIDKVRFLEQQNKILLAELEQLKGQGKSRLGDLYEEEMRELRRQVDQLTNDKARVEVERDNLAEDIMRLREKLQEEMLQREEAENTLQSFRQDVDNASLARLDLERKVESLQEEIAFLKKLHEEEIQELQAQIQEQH

Regarding `CCc1c(CC(N)=O)c2cc(OCCCP(=O)(O)O)ccc2n1Cc1ccccc1` [LY311727, [3-[[3-(2-amino-2-oxoethyl)-2-ethyl-1-(phenylmethyl)-1H-indol-5-yl]oxy]propyl]-phosphonic acid], the “inhibition of hGIIA binding to full length vimentin” value in assay [1] is on record as “c2 exhibited greater inhibition of hGIIA binding to full length vimentin than LY311727”.

As to “cyclo-((2-Nal)-Leu-Ser-(2-Nal)-Arg) (cyclo([2Nal]LS[2Nal]R); SMILES CC(C)C[C@@H]1NC(=O)[C@H](Cc2ccc3ccccc3c2)NC(=O)[C@H](CCCNC(=N)N)NC(=O)[C@H](Cc2ccc3ccccc3c2)NC(=O)[C@H](CO)NC1=O)”, in assay [2], the “growth in tumour volume” value is “significantly reduced the growth in tumour volume; also recorded: potently slows the growth of prostate cancer”.

B1: human group IIA secreted phospholipase A2 (hGIIA), recombinant, purified from conditioned media of CHO cell line 2B1 (enzyme)
chain: NLVNFHRMIKLTTGKEAALSYGFYGCHCGVGGRGSPKDATDRCCVTHDCCYKRLEKRGCGTKFLSYKFSNSGSRITCAKQDSCRSQLCECDKAAATCFARNKTTYNKKYQYYSNKHCRGSTPRC
notes: this was not applied; also called human sPLA2-IIA; sPLA2
On to B1, for which, in assay [3], the binding result is given as “no binding (tested: 5-1000 ng/mL hGIIA)”.
